This note sets out measurements from US20230322854A1, “HUNTINGTIN-RELATED PEPTIDE AGENTS AND USES THEREOF” (UNIVERSITY OF SOUTHERN CALIFORNIA, priority 2020, published 2023).

“Also recorded” adds a separate entry of the source. No end group written: not given here. spin label = not defined here

For assay [1], the system named is unbundled Huntingtin fibrils (exon 1). Description: Radioactive binding assay, immobilized unbundled Huntingtin fibrils. As to conditions: for effect on HD1 binding of constant region / N-terminal mutation: HD 1A versus HD1 with GSGTSGSS, HD1 MA versus HD1 MM; for effect on binding of mutating the HD8 residue to Alanine: Alanine scan of HD8; for effect on HD8 binding affinity of constant region / N-terminal mutation: versus HD8 with GSGTSGSS, HD8 MA versus HD8 MM; for effect on binding of mutating the HD1 residue to Alanine: Alanine scan of HD1; for binding to Htt-fibrils: radiolabeled mRNA-peptide fusions, fibrils immobilized on beads. From the text: Messenger RNA (mRNA) display (described in (Roberts, et al. (1997) Proc Natl Acad Sci USA 94: 12297-302, Takahashi, et al. (2003) Trends Biochem Sci 28: 159-65); FIG. 2) was used to engineer peptide agents that bind to unbundled fibrils of Huntingtin exon 1. To do this, unbundled Huntingtin fibrils were generated by mixing biotinylated Huntingtin protein (exon 1; FIG. 1) with non-biotinylated exon 1 Huntingtin protein at a ratio of 1:20 (˜5% biotinylated Huntingtin). These fibrils were then immobilized on Neutravidin agarose (Thermo Fisher) or Streptavidin ultralink beads (Thermo Fisher) via the attached biotin. A MX9 (where X is any of the 20 natural amino acids) mRNA display library was generated using published procedures (Takahashi, et al. (2009) Methods Mol Biol 535: 293-314) and incubated with immobilized fibrils. Non-binding sequences were washed away and the remaining fibril binding peptides were amplified via RT-PCR. This process was repeated seven times.
(§1) The binding of the peptide library was determined using a radioactive binding assay. In this assay, peptides were radiolabeled by translating the mRNA coding for these peptides in the presence of ^35S-methionine using rabbit reticulocyte lysate (Jackson, et al. (1983) Methods Enzymol 96: 50-74). These peptides were translated in an mRNA display format and were thus linked to their encoding mRNA, as described above. After purification by dT chromatography, the radiolabeled peptides were incubated with Huntingtin fibrils immobilized on Neutravidin Agarose or Streptavidin Ultralink beads. The beads were then filtered through a Spin X column (Corning) to separate the supernatant and beads, then washed to remove unbound sequences. The supernatant, washes, and beads were all counted in a scintillation counter to determine the counts in each sample. The percent bound was determined by dividing the counts on the beads with the total counts (beads+washes+supernatant).

In the next assay the test system is Httex1 aggregates. Description: Labeling of Httex1 aggregates in retinal sections of Huntington mouse models. To be noted: R6/1 (34 weeks) and zQ175KI (48 weeks) mice, 2 micromolar. From the text:
FIG. 28 presents fluorescence microscopy pictures showing that HD8-Alexa488 labels aggregated Httex1 in retina sections from two different mouse model of Huntington disease. Left panels show nuclear stain that labels all cells. Right panels show signal from HD8-Alexa488. Top panels show a retinal section from a R6/1 mouse, and bottom panels show a retinal section from a zQ175KI mouse.
Left panels show nuclear stain that labels all cells (A1 and B1), and right panels show signal from HD8-SP10-HD1-fluorescein (A2 and B2). Top panels are higher magnification that show the ganglion cell layer of the retina, and the bottom panels are lower magnification micrographs that show all retinal layers. Labeling of all retinal layers is seen when the HD peptides are dimerized. The phase contrast panel to the left of the bottom panels show the corresponding retinal layers: ONL: outer nuclear layer that contain rod and cone photoreceptor cells, INL: inner nuclear layer that contains cell bodies from horizontal cells, bipolar cells, amacrine cells and Müller cells, GCL: ganglion cell layer.
To see whether HD peptides bind Httex1 aggregates formed in vivo, we used tissues from two different Huntington mouse models, R6/1 (34 weeks old) and zQ175KI (48 weeks). FIG. 28 show retinal sections from these mice incubated with 2 micromolar of HD8 conjugated with Alexa488 at its carboxyl terminus.
HD8-HD1-fluorescein (0.1 micromolar) was also used on retinal sections from 34-week-old R6/1 mice (FIG. 29). […] In addition, weaker signal from intranuclear aggregates was also observed. Further, the signal can now be detected in all layers of the retina where the nuclei reside.

The nature of assay [2]: Radioactive binding assay, beads without target (no target control). As to conditions: radiolabeled peptide. The procedure:
as §1

The target in assay [3] is unbundled fibrils of Huntingtin exon 1 (about 5% biotinylated), immobilized on beads (UniProt P42858). As to the kind of experiment: EPR, spin-labeled peptide titrated onto 15 µM fibrils.
Assay [4] shares this target. As to the kind of experiment: alanine scan of the constant region, radioactive binding assay.

Turning to “HD1 MA: HD1 with additional Met at the N-terminus, Met1 changed to Ala (MADWWPMWPSLGSGTSGSS)”, the “effect on HD1 binding of constant region / N-terminal mutation” value in assay [1] was “significantly decreases binding”.

For “HD1-SP10-HD8-SP10-HD1: trimeric peptide agent of HD1, HD8, HD1 with spacers (MDWWPMWPSLGSGTSGSSGSMWQMMNGMSQGSGTSGSSGSMDWWPMWPSL)”, the “binding under lower fibril conditions” value in assay [1] (0.7 μg protein (about 50 pmol as monomer)) was “better performing”.

Take “HD8-Alexa488: HD8 conjugated with Alexa488 at its carboxyl terminus (MWQMMNGMSQ-Alexa488)”: the figures for the “labeling of retinal sections” value in the assay with Httex1 aggregates and with Httex1 aggregates (listed as HD8 conjugated with Alexa488) were “Specific staining was observed in the ganglion cell layer of the retina in both mouse models” and “observed mostly in the ganglion cell layer”, respectively.

With “HD8SP10-HD1: dimeric peptide agent of HD8 and HD1 joined by a 10 amino acid spacer (MWQMMNGMSQGSGTSGSSGSMDWWPMWPSLGSGTSGSS)”, the “binding in the presence of urea” value in assay [1] (1 M, 2 M or 3 M urea versus buffer only (TBST)) is reported as “decreased binding that is approximately proportional to the amount of urea added”.

In the case of “HD 1A: HD1 with substitution of the GSGTSGSS constant region with Ala (MDWWPMWPSLA)”, the “effect on HD1 binding of constant region / N-terminal mutation” value in assay [1] is recorded as “little effect on binding affinity”.

As for MAQMMNGMSQ [W2], the “effect on binding of mutating the HD8 residue to Alanine” value in assay [1] is listed as “modest losses”.

In the case of “MAWQMMNGMSQ GSGTSGSS (MAWQMMNGMSQGSGTSGSS) [HD8 MA]”, the “effect on HD8 binding affinity of constant region / N-terminal mutation” value in assay [1] is “decrease in binding”.

Consider MDAWPMWPSL [W3], for which the “effect on binding of mutating the HD1 residue to Alanine” value in assay [1] is reported as “decrease binding”.

Turning to MDLWPMWESW (MDLWPMWESWGSGTSGSS) [HD7], the “binding to Htt-fibrils” value in assay [1] is listed as “good binding to Htt-fibrils”. Moreover, the “binding to beads without target” value in assay [2] is reported as “little to no binding to beads without target”.

MDWWAMWPSL [P5]: the “effect on binding of mutating the HD1 residue to Alanine” value in assay [1] was “decrease binding”.

For the molecule MDWWPAWPSL [M6], the “effect on binding of mutating the HD1 residue to Alanine” value in assay [1] is recorded as “decrease binding; also recorded: reduced but did not abolish”.

“MDWWPLWPSL (MDWWPLWPSLGSGTSGSS) [HD1 M6L]”: the “effect on binding of Met substitution in HD1” value in assay [1] (HD1 Met mutants versus HD1) is reported as “no effect on binding”.

In the case of MDWWPMWASL [P8], the “effect on binding of mutating the HD1 residue to Alanine” value in assay [1] was “decrease binding”.

Turning to MDWWPMWPSA [L10], the “effect on binding of mutating the HD1 residue to Alanine” value in assay [1] is given as “decrease binding”.

Take MFFVLSWTPL [HD5]: the “binding to beads without target” value in assay [2] is recorded as “high non-specific binding to beads without target”.

As to MFMMMWMSLT (MFMMMWMSLTGSGTSGSS) [HD4], the “binding to Htt-fibrils” value in assay [1] is recorded as “demonstrated binding to Htt-fibrils”. Besides, the “binding to beads without target” value in assay [2] is listed as “little to no binding to beads without target”.

On to MQMWTMWEPW (MQMWTMWEPWGSGTSGSS) [HD 6], for which, in assay [1], the “binding to Htt-fibrils” value is “good binding to Htt-fibrils”. Further, the “binding to beads without target” value in assay [2] is “little to no binding to beads without target”.

For the molecule MRWSMSYSWA (MRWSMSYSWAGSGTSGSS) [HD3], in assay [1], the “binding to Htt-fibrils” value is listed as “demonstrated binding to Htt-fibrils”. For the same molecule, in assay [2], the “binding to beads without target” value is recorded as “little to no binding to beads without target”.

Consider MWAMMNGMSQ [Q3], for which the “effect on binding of mutating the HD8 residue to Alanine” value in assay [1] is “large losses of binding”.

As to MWMIQMPGYQ (MWMIQMPGYQGSGTSGSS) [HD2], the “binding to Htt-fibrils” value in assay [1] was “demonstrated binding to Htt-fibrils”. For the same molecule, the “binding to beads without target” value in assay [2] is “little to no binding to beads without target”.

As for MWQMANGMSQ [M5], the “effect on binding of mutating the HD8 residue to Alanine” value in assay [1] is “modest losses”.

For MWQMMNAMSQ [G7], in assay [1], the “effect on binding of mutating the HD8 residue to Alanine” value is “modest losses”.

As for MWQMMNGASQ [M8], in assay [1], the “effect on binding of mutating the HD8 residue to Alanine” value is listed as “modest losses”.

As to MWQMMNGMSQA [HD 8A], the “effect on HD8 binding affinity of constant region / N-terminal mutation” value in assay [1] was “modest loss in binding affinity”.

In the case of MWQMMNGMSQG [HD 8G], the “effect on HD8 binding affinity of constant region / N-terminal mutation” value in assay [1] was “loss could be recovered”.

Consider MWQMMNGMSQGS [HD 8GS], for which the “effect on HD8 binding affinity of constant region / N-terminal mutation” value in assay [1] is listed as “loss could be recovered”.

B1: spin-labeled synthetic HD8 (peptide)
peptide: MWQMMNGMSQC(spin label)
modifications: reading uncertain
For B1, the stoichiometry of the complex (ratio) (ratio (printed 1:1)) in assay [3] was 1.

B2: HD1 G11A (peptide)
peptide: MDWWPMWPSLASGTSGSS
modifications: also: 35S-methionine
In the case of B2, in assay [4], the percent decrease in HD1 binding was found to be 20%.

B3: HD1 S12A (peptide)
peptide: MDWWPMWPSLGAGTSGSS
modifications: also: 35S-methionine
In the case of B3, the percent decrease in HD1 binding in assay [4] was 20%.

B4: spin-labeled synthetic HD1 (peptide)
peptide: MDWWPMWPSLC(spin label)
modifications: reading uncertain
Regarding B4, the stoichiometry of the complex (ratio at saturation) (ratio (printed 1:3)) in assay [3] stood at 0.33.

B5: HD8-SP10-HD1-SP10-HD8-SP10-HD1: tetrameric HD8/HD1 molecule with spacers (peptide)
peptide: MWQMMNGMSQGSGTSGSSGSMDWWPMWPSLGSGTSGSSGSMWQMMNGMSQGSGTSGSSGSMDWWPMWPSL
Take B5: the “binding to Htt-fibrils in the presence of serum” value in assay [1] (serum diluted 1:2, 1:5 or 1:10 with buffer (TBST)) was “serum can partially inhibit binding”.

B6: HD1 G13A (peptide)
peptide: MDWWPMWPSLGSATSGSS
modifications: also: 35S-methionine
With B6, in assay [4], the percent decrease in HD1 binding was determined as 20%.
